Assay results from US11945822B2, “Pyrazolo-triazine and/or pyrazolo-pxrimidine derivatives as selective inhibitor of cyclin dependent kinase” (QURIENT CO., LTD., priority 2018, dated 2024).
pIC50: −log10 of the molar value.

Each molecule was assayed against T1, CDK1/Cyclin B (Homo sapiens, UniProt P06493) (assay: Enzymatic assay for CDK1 (FRET based LANCE Ultra kinase assay)). Details: read-out: CDK1 enzymatic activity (IC50 range).
T1 construct: purchased Invitrogen PR4768C
Assay type: biochemical
How it was run: (§1)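 Each CDK complex ([…]) phosphorylated 68 nM ULight-MBP peptide with ATP at Km for 60 min at 23° C., against 8 compound doses (4-fold dilutions). EDTA/Eu-anti-phospho-MBP detection, 60 min, then TR-FRET emission at 615 and 665 nm.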

T1 sequence (P06493 whole entry): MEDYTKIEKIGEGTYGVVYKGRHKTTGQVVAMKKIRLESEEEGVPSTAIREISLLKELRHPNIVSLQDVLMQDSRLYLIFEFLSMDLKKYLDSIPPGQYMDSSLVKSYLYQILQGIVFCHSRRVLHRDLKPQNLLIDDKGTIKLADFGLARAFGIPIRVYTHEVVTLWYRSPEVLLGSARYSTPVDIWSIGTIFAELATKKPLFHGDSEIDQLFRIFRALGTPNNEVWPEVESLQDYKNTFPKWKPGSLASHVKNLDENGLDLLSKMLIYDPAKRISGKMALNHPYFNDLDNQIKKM
T1 sequence (P14635 whole entry partner): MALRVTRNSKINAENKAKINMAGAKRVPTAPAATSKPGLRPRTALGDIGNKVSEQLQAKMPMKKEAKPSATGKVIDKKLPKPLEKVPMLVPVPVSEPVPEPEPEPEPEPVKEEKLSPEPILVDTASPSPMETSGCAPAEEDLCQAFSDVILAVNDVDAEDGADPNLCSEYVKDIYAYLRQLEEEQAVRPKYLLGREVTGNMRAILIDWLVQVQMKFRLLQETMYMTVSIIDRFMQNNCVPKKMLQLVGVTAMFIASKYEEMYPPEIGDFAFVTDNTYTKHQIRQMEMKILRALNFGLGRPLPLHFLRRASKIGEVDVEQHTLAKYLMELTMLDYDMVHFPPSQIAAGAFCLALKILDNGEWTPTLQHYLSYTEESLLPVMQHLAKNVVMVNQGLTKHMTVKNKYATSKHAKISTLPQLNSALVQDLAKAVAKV

pIC50 | Structure (SMILES)
< 6.00 | CC(C)c1cnn2c(NCc3ccccc3-n3cccn3)nc(N3CCC(O)CC3)nc12 [Compound 4]
< 6.00 | CC(C)(C)c1cnn2c(NCc3c(F)cccc3-n3cccn3)nc(N3CCC(N)CC3)nc12 [Compound 13]
< 6.00 | CNC(=O)c1cccc(F)c1CNc1nc(N2CCC(N)CC2)nc2c(C(C)(C)C)cnn12 [Compound 20]

The molecules below were run against T2, CDK2/Cyclin A (Homo sapiens, UniProt P24941) (assay: Enzymatic assay for CDK2 (FRET based LANCE Ultra kinase assay)). Details: read-out: CDK2 enzymatic activity (IC50 range).
T2 construct: purchased Invitrogen PV6290
Assay type: biochemical
How it was run: as §1

pIC50 | Structure (SMILES)
6.00 to 7.00 | CC(C)c1cnn2c(NCc3ccccc3-n3cccn3)nc(N3CCC(O)CC3)nc12 [Compound 4]
< 6.00 | CC(C)(C)c1cnn2c(NCc3c(F)cccc3-n3cccn3)nc(N3CCC(N)CC3)nc12 [Compound 13]
< 6.00 | CNC(=O)c1cccc(F)c1CNc1nc(N2CCC(N)CC2)nc2c(C(C)(C)C)cnn12 [Compound 20]

These molecules were tested against T3, CDK5/p25 (Homo sapiens, UniProt Q00535) (assay: Enzymatic assay for CDK5 (FRET based LANCE Ultra kinase assay)). Details: read-out: CDK5 enzymatic activity (IC50 range).
T3 construct: purchased Invitrogen PR8543B
Assay type: biochemical
How it was run: as §1

T3 sequence (Q00535 whole entry): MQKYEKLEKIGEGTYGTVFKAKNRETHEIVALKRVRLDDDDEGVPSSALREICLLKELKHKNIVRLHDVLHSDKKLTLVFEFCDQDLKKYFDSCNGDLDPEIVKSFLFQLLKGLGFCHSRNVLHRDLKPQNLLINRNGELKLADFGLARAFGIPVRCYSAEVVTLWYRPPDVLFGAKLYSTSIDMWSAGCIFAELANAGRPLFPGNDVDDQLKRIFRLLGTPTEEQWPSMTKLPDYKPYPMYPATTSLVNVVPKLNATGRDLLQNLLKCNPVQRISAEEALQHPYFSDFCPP
T3 sequence (Q15078 99-307 partner limits assumed): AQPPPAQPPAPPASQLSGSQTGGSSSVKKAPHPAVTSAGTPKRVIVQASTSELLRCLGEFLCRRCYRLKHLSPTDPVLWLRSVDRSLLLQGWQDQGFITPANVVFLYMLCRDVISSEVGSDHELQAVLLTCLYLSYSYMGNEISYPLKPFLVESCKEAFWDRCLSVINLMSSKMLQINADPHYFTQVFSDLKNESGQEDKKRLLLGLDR

pIC50 | Structure (SMILES)
6.00 to 7.00 | CC(C)c1cnn2c(NCc3ccccc3-n3cccn3)nc(N3CCC(O)CC3)nc12 [Compound 4]
6.00 to 7.00 | CC(C)(C)c1cnn2c(NCc3c(F)cccc3-n3cccn3)nc(N3CCC(N)CC3)nc12 [Compound 13]
< 6.00 | CNC(=O)c1cccc(F)c1CNc1nc(N2CCC(N)CC2)nc2c(C(C)(C)C)cnn12 [Compound 20]

What follows are molecules tested against T4, CDK7/Cyclin H/MNAT1 (Homo sapiens, UniProt P50613) (assay: Enzymatic assay for CDK7 (FRET based LANCE Ultra kinase assay)). Details: CDK7 over CDK1.
T4 construct: purchased Invitrogen PR6749B
Assay type: biochemical
How it was run: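 LANCE Ultra TR-FRET kinase assay using a ULight-labeled peptide substrate and a Eu-labeled anti-phospho antibody, with ATP at its Km. Purified CDK/cyclin complex was added to compound after brief centrifugation.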

T4 sequence (P50613 whole entry): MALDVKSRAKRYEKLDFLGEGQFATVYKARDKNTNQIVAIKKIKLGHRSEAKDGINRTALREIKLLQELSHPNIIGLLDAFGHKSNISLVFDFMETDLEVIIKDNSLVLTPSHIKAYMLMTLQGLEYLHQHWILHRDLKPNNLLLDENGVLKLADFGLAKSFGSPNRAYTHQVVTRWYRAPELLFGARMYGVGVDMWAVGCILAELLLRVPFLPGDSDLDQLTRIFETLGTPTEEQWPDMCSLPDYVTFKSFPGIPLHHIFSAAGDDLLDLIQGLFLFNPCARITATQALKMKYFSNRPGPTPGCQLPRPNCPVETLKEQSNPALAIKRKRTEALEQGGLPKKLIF
T4 sequence (P51946 whole entry partner): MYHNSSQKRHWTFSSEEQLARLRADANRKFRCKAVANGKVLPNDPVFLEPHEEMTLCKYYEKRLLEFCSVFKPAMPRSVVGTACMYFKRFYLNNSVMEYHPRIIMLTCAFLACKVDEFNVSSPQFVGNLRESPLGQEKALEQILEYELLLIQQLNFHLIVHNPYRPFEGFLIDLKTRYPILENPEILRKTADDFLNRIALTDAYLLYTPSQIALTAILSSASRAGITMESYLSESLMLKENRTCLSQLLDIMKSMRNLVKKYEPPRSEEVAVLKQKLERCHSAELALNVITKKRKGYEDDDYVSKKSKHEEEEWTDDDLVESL
T4 sequence (P51948 whole entry partner): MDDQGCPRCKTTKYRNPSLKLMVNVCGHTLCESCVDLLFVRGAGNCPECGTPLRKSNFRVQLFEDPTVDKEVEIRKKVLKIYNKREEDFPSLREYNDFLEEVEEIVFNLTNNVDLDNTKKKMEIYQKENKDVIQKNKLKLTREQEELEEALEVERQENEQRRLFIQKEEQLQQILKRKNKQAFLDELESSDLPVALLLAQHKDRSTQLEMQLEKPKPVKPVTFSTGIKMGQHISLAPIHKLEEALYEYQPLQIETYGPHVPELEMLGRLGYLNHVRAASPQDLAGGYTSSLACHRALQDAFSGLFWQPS

CDK1/CDK7: Selectivity of CDK7 inhibition over CDK1 inhibition | Structure (SMILES)
A (A=greater than 200 fold) | CC(C)(C)c1cnn2c(NCc3c(F)cccc3-n3cccn3)nc(N3CCC(N)CC3)nc12 [Compound 13]
A (A=greater than 200 fold) | CNC(=O)c1cccc(F)c1CNc1nc(N2CCC(N)CC2)nc2c(C(C)(C)C)cnn12 [Compound 20]

Structure (SMILES) | CDK1/CDK7: Selectivity of CDK7 inhibition over CDK1 inhibition
CC(C)c1cnn2c(NCc3ccccc3-n3cccn3)nc(N3CCC(O)CC3)nc12 [Compound 4] | B (B=less than 200 fold, but greater than 20 fold)

Same assay, conditions: CDK7 over CDK2

Structure (SMILES) | CDK2/CDK7: Selectivity of CDK7 inhibition over CDK2 inhibition
CC(C)c1cnn2c(NCc3ccccc3-n3cccn3)nc(N3CCC(O)CC3)nc12 [Compound 4] | B (B=less than 200 fold, but greater than 20 fold)
CC(C)(C)c1cnn2c(NCc3c(F)cccc3-n3cccn3)nc(N3CCC(N)CC3)nc12 [Compound 13] | B (B=less than 200 fold, but greater than 20 fold)
CNC(=O)c1cccc(F)c1CNc1nc(N2CCC(N)CC2)nc2c(C(C)(C)C)cnn12 [Compound 20] | A (A=greater than 200 fold)

Same assay, conditions: CDK7 over CDK5

Structure (SMILES) | CDK5/CDK7: Selectivity of CDK7 inhibition over CDK5 inhibition
CC(C)c1cnn2c(NCc3ccccc3-n3cccn3)nc(N3CCC(O)CC3)nc12 [Compound 4] | B (B=less than 200 fold, but greater than 20 fold)
CC(C)(C)c1cnn2c(NCc3c(F)cccc3-n3cccn3)nc(N3CCC(N)CC3)nc12 [Compound 13] | B (B=less than 200 fold, but greater than 20 fold)
CNC(=O)c1cccc(F)c1CNc1nc(N2CCC(N)CC2)nc2c(C(C)(C)C)cnn12 [Compound 20] | A (A=greater than 200 fold)

Same assay, conditions: read-out: CDK7 enzymatic activity (IC50 range)

pIC50 | Structure (SMILES)
> 7.00 | CC(C)c1cnn2c(NCc3ccccc3-n3cccn3)nc(N3CCC(O)CC3)nc12 [Compound 4]
> 7.00 | CC(C)(C)c1cnn2c(NCc3c(F)cccc3-n3cccn3)nc(N3CCC(N)CC3)nc12 [Compound 13]
> 7.00 | CNC(=O)c1cccc(F)c1CNc1nc(N2CCC(N)CC2)nc2c(C(C)(C)C)cnn12 [Compound 20]

The molecules below were run on H460 (assay: Cellular H460 viability assay (CellTiter-Glo, 72 hours)). Details: Homo sapiens, NCI-H460.
Assay type: cell-based
How it was run: (§2)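 72 h treatment, 37 °C, 5% CO2; DMSO ctrl, final <0.1%; CellTiter-Glo luminescence; n=2.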

pIC50 | Structure (SMILES)
5.00 to 6.00 | CC(C)c1cnn2c(NCc3ccccc3-n3cccn3)nc(N3CCC(O)CC3)nc12 [Compound 4]
> 6.00 | CC(C)(C)c1cnn2c(NCc3c(F)cccc3-n3cccn3)nc(N3CCC(N)CC3)nc12 [Compound 13]
> 6.00 | CNC(=O)c1cccc(F)c1CNc1nc(N2CCC(N)CC2)nc2c(C(C)(C)C)cnn12 [Compound 20]

The molecules below were run on MM.1S (assay: Cellular MM.1S viability assay (CellTiter-Glo, 72 hours)). Details: Homo sapiens, MM1.S.
Assay type: cell-based
Text: Human T-cell acute lymphoblastic leukemia cell line, MOLT-4 (ATCC, Cat #CRL-1582), Human multiple myeloma cell line, RPMI-8226 (Invitrogen, Cat #22400-089) and MM.1S (ATCC, Cat #CRL-2974), NSCLC (Non-small cell lung cancer) cell line H460 (ATCC, Cat #HTB-177), Human colon colorectal carcinoma cell line HCT116 (ATCC, Cat #CCL-247), Human acute monocytic leukemia cell line MV4-11 (ATCC, Cat #CRL-9591), OVCAR-3 (ATCC, Cat #HTB-161) and A2780 (ECACC, Cat #93112519) were obtained from ATCC. Cells were grown in RPMI-1640 media (Invitrogen, Cat #22400-089) supplemented with 10% FBS (Invitrogen, Cat #10099141) and 1% penicillin/streptomycin (Invitrogen, Cat #15070063) and cultured at 37° C., 5% CO2 in a humidified chamber. All cell lines were routinely tested for mycoplasma.
The effect of the CDK7 inhibitor to inhibit the growth of target cancer cells was evaluated through the 72 hours time period of viability assay. Briefly, the candidate cell line ware plated in 96 well plate at the following density of cells respectively. 1×10^4 cells/well for MOLT-4, RPMI-8226, MV4-11 and MM.1S, 5×10^3 for H460, HCT116 and OVCAR-3 and IX 10^3 for A2780. After 24 hours, the cells were treated with various concentrations of the compound (ranging from 0.0015 uM to 10 uM). DMSO solvent without compound served as a control and final DMSO concentration less than 0.1%. After 72 hours of incubation at 37° C., 5% CO2 incubator, cells were analyzed for the viability using the CellTiter-Glo Luminescent Cell Viability Assay (Promega, Cat #G7570). All viability assays were performed in duplicate and Luminescence was read using an Envision (Perkin Elmer, USA). Data was analyzed using XLfit software.

pIC50 | Structure (SMILES)
≥ 6.00 | CC(C)(C)c1cnn2c(NCc3c(F)cccc3-n3cccn3)nc(N3CCC(N)CC3)nc12 [Compound 13]
5.00 to 6.00 | CNC(=O)c1cccc(F)c1CNc1nc(N2CCC(N)CC2)nc2c(C(C)(C)C)cnn12 [Compound 20]

The molecules below were run on MV4-11 (assay: Cellular MV4-11 viability assay (CellTiter-Glo, 72 hours)). Details: Homo sapiens.
Assay type: cell-based
How it was run: as §2

pIC50 | Structure (SMILES)
> 6.00 | CNC(=O)c1cccc(F)c1CNc1nc(N2CCC(N)CC2)nc2c(C(C)(C)C)cnn12 [Compound 20]

Each molecule was assayed on MOLT-4 (assay: Cellular MOLT-4 viability assay (CellTiter-Glo, 72 hours)). Details: Homo sapiens, MOLT4 viability assay.
Assay type: cell-based
How it was run: as §2

pIC50 | Structure (SMILES)
< 5.00 | CC(C)c1cnn2c(NCc3ccccc3-n3cccn3)nc(N3CCC(O)CC3)nc12 [Compound 4]

These molecules were tested on A2780 (assay: Cellular A2780 viability assay (CellTiter-Glo, 72 hours)). Details: Homo sapiens.
Assay type: cell-based
How it was run: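 Cells seeded at 1×10^4/well (MM.1S), 5×10^3 (OVCAR-3) or 1×10^3 (A2780), grown in RPMI-1640 with 10% FBS. After 24 h, compound added at 0.0015–10 uM, final DMSO below 0.1%, for 72 h at 37° C. Viability read by CellTiter-Glo luminescence in duplicate, with curve fitting.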

pIC50 | Structure (SMILES)
5.00 to 6.00 | CC(C)c1cnn2c(NCc3ccccc3-n3cccn3)nc(N3CCC(O)CC3)nc12 [Compound 4]
